The values that follow are results of earlier work, collected in patent US7645466B2, “Methods for deriving, isolating, and/or extracting amino acid compositions from Fenugreek seed” (TSI Group Limited, priority 2004, dated 2010).

This series has as its system pancreatic beta cell. The conditions noted are these: micromolar concentrations; direct effect on pancreatic beta cell, glucose dependent.

For the molecule `C[C@@H]([C@H](C)O)[C@H](N)C(=O)O` [4-hydroxyisoleucine], the glucose-induced insulin secretion result is “stimulate glucose-induced insulin secretion in micromolar concentrations”.
